In patent US20040018581A1, “Method for discovering substances for inhibiting enzymes” (Pharmacia and UpJohn Company, priority 2002, published 2004):

Tests used:
[1] = tested on: Δgpd1-pYES2/m1pdh (Saccharomyces cerevisiae Δgpd1 expressing Eimeria tenella m1pdh); assay: Growth inhibition of yeast transformant Δgpd1-pYES2/m1pdh in liquid YEPD with or without 1.5 M NaCl (OD 600); format: cell-based
Protocol: (§1) Transformants growing on high salt plates were picked and grown in 18×150 mm glass culture tubes containing 10 ml liquid YEPD medium or liquid YEPD medium with 1.5 M NaCl. These tubes were inoculated with approximately 10^5 cells and cultured at 30° C. on a roller bottle. Growth rates were recorded in terms of optical density values at various times after inoculation. Growth rates were also monitored in 96-well plates using the indicator dye Alamar Blue (BioSource International, Camarillo, Calif.) as previously described by Klein et al., (1997b). In 96-well plate experiments, each well contained approximately 10^4 cells (in 20 ul medium) inoculated into 180 ul liquid YEPD medium or liquid YEPD medium containing 1.5 M NaCl. These plates were then incubated at 30° C. for 24 or 48 hours. At that time, 20 ul Alamar Blue solution was added to each well and the color allowed to develop for 5-30 minutes. Color changes in each well were noted after visual inspection and recorded.
(§2) Nitrophenide, a known inhibitor of MIPDH (Schmatz 1997), was used to validate the assay. The Δgpd1transformed with pYES21/m1pdh was grown in liquid YEPD medium, either supplemented with 1.5 M NaCal or not and containing one of 3 concentrations of nitrophenide (Aldrich Chemical Co.) dissolved in DMSO. Experiments were conducted in glass culture tubes prepared and processed as described above. Growth in nitrophenide-containing media was compared to growth in identical medium lacking nitrophenide by measuring and recording changes at OD 600 nm after 24, 48 or 72 hours in culture as described above.
(§3) Test groups of each sample organism were inoculated into liquid cultures of YEPD and YEPD with 1.5 M NaCl. Rate of growth was estimated by recording OD 600 values at 24 hr intervals. All strains grew equally well in YEPD, but growth rates in YEPD with 1.5 M NaCl were distinctly different between transformants expressing mt1D or m1pdh and controls as shown in FIG. 3.
Nitrophenide was dissolved in DMSO and added to cultures at final concentrations of 1 μM, 2.5 μM or 10 μM. DMSO alone was also tested. Little toxicity was apparent for DMSO or for nitrophenide in YEPD except at 10 μM, a concentration at which slowing of the rate of growth of Δgpd1-pYES2/mt1D and Δgpd1-pYES2/MIPDH was observed as shown in FIG. 4. However, in YEPD with 1.5 M NaCl, nitrophenide was toxic to Δgpd1-pYES2/mt1D and Δgpd1-pYES2/MIPDH at concentrations as low as 2.5 uM and abolishes growth at 10 uM as shown in FIG. 4. Nitrophenide was also toxic to W303-1A under these conditions, but this strain grew more slowly than either of the transformants under salt pressure. The difference in rate of growth made comparisons between strains difficult.

[2] = tested on: Δgpd1-pYES2/mt1D (Saccharomyces cerevisiae Δgpd1 expressing E. coli mt1D); assay: Growth inhibition of yeast transformant Δgpd1-pYES2/mt1D in liquid YEPD with or without 1.5 M NaCl (OD 600); format: cell-based
Protocol: as §1, §2, §3
Nitrophenide was dissolved in DMSO and added to cultures at final concentrations of 1 μM, 2.5 μM or 10 μM. DMSO alone was also tested. […]

W303-1A = assay: Growth inhibition of wild-type yeast W303-1A in YEPD with 1.5 M NaCl (OD 600); format: cell-based, Saccharomyces cerevisiae
Protocol: as §1
as §2, with “Growth in nitrophenide-containing media was compared to growth in identical medium lacking nitrophenide by measuring and recording changes at OD 600 nm after 24, 48 or 72 hours in culture as described above.” left out

[3] = YEPD with 1.5 M NaCl, tested at 1, 2.5 and 10 μM
[4] = YEPD without added NaCl, little toxicity at lower concentrations

O=[N+]([O-])c1cccc(SSc2cccc([N+](=O)[O-])c2)c1 [Nitrophenide, nitrophenide]
concentration that abolishes growth ([1]; YEPD with 1.5 M NaCl): 10 µM
lowest concentration toxic to growth [1, 3]: 2.5 µM
concentration at which slowing of the rate of growth was observed [1, 4]: 10 µM
effect on growth (FIG. 4) ([1]; medium containing 1.5 M NaCl): dramatically suppressed
toxicity compared with 1.5 M NaCl medium (FIG. 4) ([1]; medium with no additional NaCl): reduced
concentration that abolishes growth ([2]; YEPD with 1.5 M NaCl): 10 µM
lowest concentration toxic to growth [2, 3]: 2.5 µM
concentration at which slowing of the rate of growth was observed [2, 4]: 10 µM
toxicity to growth (W303-1A): toxic
